Measurements: patent US12428406B2 (PMV Pharmaceuticals, Inc., priority 2019, dated 2025)

What follows are compounds tested against T1, p53 Y220C (Homo sapiens, UniProt P04637, Y220C) (assay: In vitro DNA binding activity assay (HTRF / TR-FRET): stabilization of p53 Y220C and increase of its DNA binding activity). Conditions: recombinant His-tagged p53 Y220C DNA binding domain (aa 94-312), biotin-labeled consensus DNA, incubated at 27° C. or 29° C. for 60 min.
T1 construct: The recombinant protein was a truncation mutant containing only amino acids 94-312 of p53; made in house; host or cells: E. coli
T1 sequence (P04637 94-312, change not shown): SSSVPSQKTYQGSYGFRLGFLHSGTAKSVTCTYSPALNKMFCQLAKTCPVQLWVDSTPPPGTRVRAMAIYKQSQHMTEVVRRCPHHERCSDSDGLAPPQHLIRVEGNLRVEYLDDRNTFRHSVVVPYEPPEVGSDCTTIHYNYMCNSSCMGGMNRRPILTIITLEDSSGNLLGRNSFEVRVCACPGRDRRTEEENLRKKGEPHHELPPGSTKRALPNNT
Type: biochemical
In short: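 Compound effect on DNA binding of recombinant His-p53 Y220C (E. coli) to biotin-labeled consensus DNA, expressed as SC150, the concentration giving 50% increase versus untreated. Serial 3-fold DMSO dilutions of 4.5 mM stocks; room-temperature steps of 15 then 20 min.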
In the case of `COCC(O)CN1CCC(Nc2cccc3c2cc(C#CCNc2ccc(S(C)(=O)=O)cc2OCC#N)n3CC(F)(F)F)CC1` (stereo not drawn) [Compound 642A, 2-(2-{[3-(4-{[1-(2-hydroxy-3-methoxypropyl)piperidin-4-yl]amino}-1-(2,2,2-trifluoroethyl)-1H-indol-2-yl)prop-2-yn-1-yl]amino}-5-methanesulfonylphenoxy) acetonitrile], the “SC150 (concentration of the compound required to increase the DNA binding activity by 50%)” value is reported as “+ (+ = 0 μM ≤ SC150 < 0.05 μM)”. With `COCC(O)CN1CCC(Nc2c(OC)ccc3c2cc(C#CCNc2ccc(S(C)(=O)=O)cc2OC)n3CC(F)(F)F)CC1` (stereo not drawn) [Compound 643A, 1-{4-[(2-{3-[(4-methanesulfonyl-2-methoxyphenyl)amino]prop-1-yn-1-yl}-5-methoxy-1-(2,2,2-trifluoroethyl)-1H-indol-4-yl)amino]piperidin-1-yl}-3-methoxypropan-2-ol] the “SC150 (concentration of the compound required to increase the DNA binding activity by 50%)” value was “+++ (+++ = 0.1 μM ≤ SC150 < 0.2 μM)”. `COCC(O)CN1CCC(Nc2cccc3c2cc(C#CCNc2ccc(S(C)(=O)=O)cc2OCCO)n3CC(F)(F)F)CC1` (stereo not drawn) [Compound 644A, 1-(4-{[2-(3-{[2-(2-hydroxyethoxy)-4-methanesulfonylphenyl]amino}prop-1-yn-1-yl)-1-(2,2,2-trifluoroethyl)-1H-indol-4-yl]amino}piperidin-1-yl)-3-methoxypropan-2-ol] was tested, and the “SC150 (concentration of the compound required to increase the DNA binding activity by 50%)” value was “+ (+ = 0 μM ≤ SC150 < 0.05 μM)”. With `COCC(O)CN1CCC(Nc2cccc3c2cc(C#CCNc2ccc(S(C)(=O)=O)cc2OCC(F)(F)F)n3CC(F)(F)F)CC1` (stereo not drawn) [Compound 645A, 1-(4-{[2-(3-{[4-methanesulfonyl-2-(2,2,2-trifluoroethoxy)phenyl]amino}prop-1-yn-1-yl)-1-(2,2,2-trifluoroethyl)-1H-indol-4-yl]amino}piperidin-1-yl)-3-methoxypropan-2-ol] the “SC150 (concentration of the compound required to increase the DNA binding activity by 50%)” value was “+ (+ = 0 μM ≤ SC150 < 0.05 μM)”. In the case of `COCC(O)CN1CCC(Nc2cccc3c2cc(C#CCOc2ccc(S(C)(=O)=O)cc2N)n3CC(F)(F)F)CC1` (stereo not drawn) [Compound 646A, 1-[4-((2-[3-(2-amino-4-methanesulfonylphenoxy)prop-1-yn-1-yl]-1-(2,2,2-trifluoroethyl)-1H-indol-4-yl}amino)piperidin-1-yl]-3-methoxypropan-2-ol], the “SC150 (concentration of the compound required to increase the DNA binding activity by 50%)” value is reported as “+ (+ = 0 μM ≤ SC150 < 0.05 μM)”. With `CNC(=O)c1ccc(NCC#Cc2cc3c(NC4CCN(C[C@@H](O)COC)CC4)cccc3n2CC(F)(F)F)c(OC)c1` [Compound 647A, 4-({3-[4-({1-[(2R)-2-hydroxy-3-methoxypropyl]piperidin-4-yl}amino)-1-(2,2,2-trifluoroethyl)-1H-indol-2-yl]prop-2-yn-1-yl}amino)-3-methoxy-N-methylbenzamide] the “SC150 (concentration of the compound required to increase the DNA binding activity by 50%)” value was “+ (+ = 0 μM ≤ SC150 < 0.05 μM)”. For `CNC(=O)c1ccc(NCC#Cc2cc3c(NC4CCN(C[C@H](O)COC)CC4)cccc3n2CC(F)(F)F)c(OC)c1` [Compound 648A, 4-({3-[4-({1-[(2S)-2-hydroxy-3-methoxypropyl]piperidin-4-yl}amino)-1-(2,2,2-trifluoroethyl)-1H-indol-2-yl]prop-2-yn-1-yl}amino)-3-methoxy-N-methylbenzamide], the “SC150 (concentration of the compound required to increase the DNA binding activity by 50%)” value was “+ (+ = 0 μM ≤ SC150 < 0.05 μM)”. In the case of `CNC(=O)c1ccc(NCC#Cc2cc3c(NC4CCN(C[C@H](CO)OC)CC4)cccc3n2CC(F)(F)F)c(OC)c1` [Compound 649A, 4-({3-[4-({1-[(2R)-3-hydroxy-2-methoxypropyl]piperidin-4-yl}amino)-1-(2,2,2-trifluoroethyl)-1H-indol-2-yl]prop-2-yn-1-yl}amino)-3-methoxy-N-methylbenzamide], the “SC150 (concentration of the compound required to increase the DNA binding activity by 50%)” value is reported as “+ (+ = 0 μM ≤ SC150 < 0.05 μM)”. With `CNC(=O)c1ccc(NCC#Cc2cc3c(NC4CCN(C[C@@H](CO)OC)CC4)cccc3n2CC(F)(F)F)c(OC)c1` [Compound 650A, 4-({3-[4-({1-[(2S)-3-hydroxy-2-methoxypropyl]piperidin-4-yl}amino)-1-(2,2,2-trifluoroethyl)-1H-indol-2-yl]prop-2-yn-1-yl}amino)-3-methoxy-N-methylbenzamide] the “SC150 (concentration of the compound required to increase the DNA binding activity by 50%)” value was “+ (+ = 0 μM ≤ SC150 < 0.05 μM)”. `CNc1cc(S(C)(=O)=O)ccc1OCC#Cc1cc2c(NC3CCN(CC(O)COC)CC3)cccc2n1CC(F)(F)F` (stereo not drawn) [Compound 651A, l-{4-[(2-{3-[4-methanesulfonyl-2-(methylamino)phenoxy]prop-1-yn-1-yl}-1-(2,2,2-trifluoroethyl)-1H-indol-4-yl)amino]piperidin-1-yl}-3-methoxypropan-2-ol] was tested, and the “SC150 (concentration of the compound required to increase the DNA binding activity by 50%)” value was “+ (+ = 0 μM ≤ SC150 < 0.05 μM)”. With `CNC(=O)c1ccc(NCC#Cc2cc3c(NC4CCN(CC(O)COC)CC4)cccc3n2CC(F)(F)F)c(OCCF)c1` (stereo not drawn) [Compound 652A, 3-(2-fluoroethoxy)-4-{[3-(4-{[1-(2-hydroxy-3-methoxypropyl)piperidin-4-yl]amino}-1-(2,2,2-trifluoroethyl)-1H-indol-2-yl)prop-2-yn-1-yl]amino}-N-methylbenzamide] the “SC150 (concentration of the compound required to increase the DNA binding activity by 50%)” value was “+ (+ = 0 μM ≤ SC150 < 0.05 μM)”. In the case of `CNC(=O)c1ccc(NCC#Cc2cc3c(NC4CCN(CC(O)COC)CC4)cccc3n2CC(F)(F)F)c(OCCOC)c1` (stereo not drawn) [Compound 653A, 4-{[3-(4-{[1-(2-hydroxy-3-methoxypropyl)piperidin-4-yl]amino}-1-(2,2,2-trifluoroethyl)-1H-indol-2-yl)prop-2-yn-1-yl]amino}-3-(2-methoxyethoxy)-N-methylbenzamide], the “SC150 (concentration of the compound required to increase the DNA binding activity by 50%)” value is reported as “+ (+ = 0 μM ≤ SC150 < 0.05 μM)”. For `CNC(=O)c1ccc(NCC#Cc2cc3c(NC4CCN(CC(O)COC)CC4)cccc3n2CC(F)(F)F)c(OCC#N)c1` (stereo not drawn) [Compound 654A, 3-(cyanomethoxy)-4-{[3-(4-{[1-(2-hydroxy-3-methoxypropyl)piperidin-4-yl]amino}-1-(2,2,2-trifluoroethyl)-1H-indol-2-yl)prop-2-yn-1-yl]amino}-N-methylbenzamide], the “SC150 (concentration of the compound required to increase the DNA binding activity by 50%)” value was “+ (+ = 0 μM ≤ SC150 < 0.05 μM)”. For `CCNC(=O)c1ccc(NCC#Cc2cc3c(NC4CCN(CC(O)COC)CC4)cccc3n2CC(F)(F)F)c(OC)c1` (stereo not drawn) [Compound 655A, N-ethyl-4-{[3-(4-{[1-(2-hydroxy-3-methoxypropyl)piperidin-4-yl]amino}-1-(2,2,2-trifluoroethyl)-1H-indol-2-yl)prop-2-yn-1-yl]amino}-3-methoxybenzamide], the “SC150 (concentration of the compound required to increase the DNA binding activity by 50%)” value was “+ (+ = 0 μM ≤ SC150 < 0.05 μM)”. In the case of `CCC(=O)OCC(CN1CCC(Nc2cccc3c2cc(C#CCNc2ccc(C(=O)NC)cc2OC)n3CC(F)(F)F)CC1)OC(=O)CC` (stereo not drawn) [Compound 656A, 1-(4-{[2-(3-{[2-methoxy-4-(methylcarbamoyl)phenyl]amino}prop-1-yn-1-yl)-1-(2,2,2-trifluoroethyl)-1H-indol-4-yl]amino}piperidin-1-yl)-3-(propanoyloxy)propan-2-yl propanoate], the “SC150 (concentration of the compound required to increase the DNA binding activity by 50%)” value is reported as “+ (+ = 0 μM ≤ SC150 < 0.05 μM)”.
